Among the data in patent publication US8921376B2, “Pyrrolopyridines useful as inhibitors of protein kinase” (Vertex Pharmaceuticals Incorporated, priority 2005, dated 2014) are Ki values, retold here.

Common to all, as to format: biochemical
The target in experiment [1] is ROCK I (Homo sapiens, UniProt Q13464). Description: ROCK-I inhibition assay (radioactive enzyme assay, MBP substrate). In short, it runs like this:
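Human ROCK at 5 nM phosphorylated 27 μM myelin basic protein with 13 μM [γ-33P]ATP (final) in HEPES pH 7.5, MgCl2, NaCl, DTT and 1.5% DMSO. Reactions ran 2 h at room temperature before TCA quench and filter-plate scintillation counting. After background subtraction, data were fit to give Ki(app).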

Experiment [2] deals with JAK2 (Homo sapiens, UniProt O60674). Description: JAK2 inhibition assay (as Example 3 with JAK-2 enzyme). In short, it runs like this: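 In HEPES pH 7.4 buffer with 10 mM MgCl2, 1 mM DTT, 25 mM NaCl and 0.01% BSA, JAK2 enzyme phosphorylated poly(Glu)4Tyr (final 15 μM) using 33P-ATP (final 12 μM) for 20 min at room temperature (25 °C). Reactions stopped with TCA; incorporated 33P measured by scintillation after filtration.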
JAK2, sequence (O60674 whole entry): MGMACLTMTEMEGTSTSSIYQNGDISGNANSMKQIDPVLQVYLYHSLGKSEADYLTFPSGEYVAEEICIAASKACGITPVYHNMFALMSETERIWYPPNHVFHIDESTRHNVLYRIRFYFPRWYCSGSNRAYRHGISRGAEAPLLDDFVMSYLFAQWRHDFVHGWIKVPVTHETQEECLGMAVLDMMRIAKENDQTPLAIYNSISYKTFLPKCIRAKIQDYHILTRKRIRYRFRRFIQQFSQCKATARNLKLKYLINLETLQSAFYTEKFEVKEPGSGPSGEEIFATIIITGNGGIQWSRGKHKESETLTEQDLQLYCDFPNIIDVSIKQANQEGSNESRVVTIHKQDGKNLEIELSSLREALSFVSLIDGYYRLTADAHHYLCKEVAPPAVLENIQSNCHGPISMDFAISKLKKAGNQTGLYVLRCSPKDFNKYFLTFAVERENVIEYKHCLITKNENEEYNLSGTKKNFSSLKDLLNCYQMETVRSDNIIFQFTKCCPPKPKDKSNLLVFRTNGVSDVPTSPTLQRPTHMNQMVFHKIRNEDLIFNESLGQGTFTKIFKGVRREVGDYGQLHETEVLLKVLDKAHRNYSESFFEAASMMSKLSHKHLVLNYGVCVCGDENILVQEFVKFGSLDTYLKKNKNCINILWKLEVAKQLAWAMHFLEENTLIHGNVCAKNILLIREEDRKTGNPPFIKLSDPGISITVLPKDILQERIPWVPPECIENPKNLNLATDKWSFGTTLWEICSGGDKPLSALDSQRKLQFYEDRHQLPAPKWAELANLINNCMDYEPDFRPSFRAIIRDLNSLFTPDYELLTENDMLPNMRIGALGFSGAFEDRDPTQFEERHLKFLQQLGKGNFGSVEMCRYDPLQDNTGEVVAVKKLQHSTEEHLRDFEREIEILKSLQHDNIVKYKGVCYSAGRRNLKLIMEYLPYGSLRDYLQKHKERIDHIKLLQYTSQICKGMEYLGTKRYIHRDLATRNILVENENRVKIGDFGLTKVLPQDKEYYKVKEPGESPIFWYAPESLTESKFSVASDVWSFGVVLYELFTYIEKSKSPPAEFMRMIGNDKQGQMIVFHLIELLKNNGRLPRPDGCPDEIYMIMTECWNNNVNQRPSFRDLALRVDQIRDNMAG

The target in experiment [3] is T1, JAK3 (Homo sapiens, UniProt P52333).
T1 sequence (P52333 1-1124): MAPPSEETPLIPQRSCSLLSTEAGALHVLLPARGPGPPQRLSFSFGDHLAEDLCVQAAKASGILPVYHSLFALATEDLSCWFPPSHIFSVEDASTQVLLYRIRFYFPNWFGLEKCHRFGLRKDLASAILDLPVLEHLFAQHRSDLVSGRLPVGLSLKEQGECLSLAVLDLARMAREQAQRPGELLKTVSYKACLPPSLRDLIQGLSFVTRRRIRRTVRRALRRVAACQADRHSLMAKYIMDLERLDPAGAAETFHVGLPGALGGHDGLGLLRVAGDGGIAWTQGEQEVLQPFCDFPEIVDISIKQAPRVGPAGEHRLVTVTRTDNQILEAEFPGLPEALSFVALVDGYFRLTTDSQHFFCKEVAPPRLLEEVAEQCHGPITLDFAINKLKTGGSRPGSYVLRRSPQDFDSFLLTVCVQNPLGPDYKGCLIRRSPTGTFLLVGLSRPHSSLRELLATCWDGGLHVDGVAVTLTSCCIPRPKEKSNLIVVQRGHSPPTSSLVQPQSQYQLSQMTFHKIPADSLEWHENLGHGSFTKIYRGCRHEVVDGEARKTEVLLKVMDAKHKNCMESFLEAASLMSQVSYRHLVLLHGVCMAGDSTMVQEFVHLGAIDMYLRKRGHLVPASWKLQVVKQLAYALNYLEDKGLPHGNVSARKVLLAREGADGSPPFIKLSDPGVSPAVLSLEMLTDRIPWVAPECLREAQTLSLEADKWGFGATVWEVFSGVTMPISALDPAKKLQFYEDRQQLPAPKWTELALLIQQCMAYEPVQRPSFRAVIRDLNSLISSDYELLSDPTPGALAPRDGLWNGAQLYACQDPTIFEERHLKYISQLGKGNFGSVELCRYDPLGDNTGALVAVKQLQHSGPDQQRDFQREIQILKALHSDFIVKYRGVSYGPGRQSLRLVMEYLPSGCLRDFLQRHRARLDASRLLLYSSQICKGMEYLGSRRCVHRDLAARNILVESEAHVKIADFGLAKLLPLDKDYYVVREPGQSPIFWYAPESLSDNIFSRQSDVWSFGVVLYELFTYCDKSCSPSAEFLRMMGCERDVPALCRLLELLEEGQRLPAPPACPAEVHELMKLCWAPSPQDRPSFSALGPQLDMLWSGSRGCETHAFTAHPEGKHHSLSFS
Description: JAK3 inhibition assay (33P incorporation into poly(Glu)4Tyr). In a few lines: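 After TCA quench and filter harvest, scintillation counting of 33P measured phosphorylation of poly(Glu)4Tyr (1 μM) by 1 nM JAK3. The 20-min, 25° C. reaction contained 5 μM ATP (200 μCi/μmole) in pH 7.4 HEPES buffer with 10 mM MgCl2.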

Setting [4] is: Table 6, enzyme inhibition data (Ki).
[5] abbreviates: enzyme inhibition, Ki(app), Table 5.

The structures appear in SMILES notation.

ROCK I, sequence (Q13464 whole entry): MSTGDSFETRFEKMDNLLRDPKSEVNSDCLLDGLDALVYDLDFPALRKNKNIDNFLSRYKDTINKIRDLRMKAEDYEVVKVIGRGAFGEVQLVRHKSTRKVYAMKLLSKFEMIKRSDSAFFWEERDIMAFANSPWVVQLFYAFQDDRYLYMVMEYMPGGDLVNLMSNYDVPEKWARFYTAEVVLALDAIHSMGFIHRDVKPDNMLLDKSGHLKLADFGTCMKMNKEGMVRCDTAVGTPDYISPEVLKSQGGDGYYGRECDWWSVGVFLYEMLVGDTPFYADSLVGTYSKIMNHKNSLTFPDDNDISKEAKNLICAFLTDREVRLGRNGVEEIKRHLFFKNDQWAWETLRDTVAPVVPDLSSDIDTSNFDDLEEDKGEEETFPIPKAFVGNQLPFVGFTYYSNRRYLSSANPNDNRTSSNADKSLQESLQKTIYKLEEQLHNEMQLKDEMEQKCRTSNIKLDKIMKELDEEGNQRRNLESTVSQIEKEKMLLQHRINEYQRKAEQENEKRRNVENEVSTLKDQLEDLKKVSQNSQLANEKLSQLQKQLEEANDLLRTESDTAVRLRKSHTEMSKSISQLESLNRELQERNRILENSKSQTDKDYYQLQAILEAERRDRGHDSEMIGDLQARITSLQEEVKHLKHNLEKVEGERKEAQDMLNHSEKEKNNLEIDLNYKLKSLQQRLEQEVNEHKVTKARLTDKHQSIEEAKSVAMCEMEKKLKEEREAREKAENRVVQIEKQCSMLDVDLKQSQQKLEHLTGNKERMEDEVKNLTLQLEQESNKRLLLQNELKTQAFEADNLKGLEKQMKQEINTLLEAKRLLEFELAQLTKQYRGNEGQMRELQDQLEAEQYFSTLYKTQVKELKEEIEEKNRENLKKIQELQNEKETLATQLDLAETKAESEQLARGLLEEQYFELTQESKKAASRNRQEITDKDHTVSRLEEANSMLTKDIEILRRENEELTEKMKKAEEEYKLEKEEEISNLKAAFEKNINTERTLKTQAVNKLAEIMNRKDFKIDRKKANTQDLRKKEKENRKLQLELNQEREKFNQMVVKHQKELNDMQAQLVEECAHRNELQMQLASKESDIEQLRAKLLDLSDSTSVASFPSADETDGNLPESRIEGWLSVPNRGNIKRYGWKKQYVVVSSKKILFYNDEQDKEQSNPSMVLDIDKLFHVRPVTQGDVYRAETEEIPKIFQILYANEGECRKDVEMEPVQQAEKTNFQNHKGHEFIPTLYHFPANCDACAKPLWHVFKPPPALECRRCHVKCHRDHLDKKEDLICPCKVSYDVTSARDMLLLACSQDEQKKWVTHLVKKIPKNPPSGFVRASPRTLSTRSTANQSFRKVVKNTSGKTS

For `O=C(c1cc(-c2c(Cl)cnc3[nH]ccc23)c[nH]1)N1CCCC(O)C1` (stereo not drawn) [compound 356], the results for the Ki in experiment [1] (setting [4]), in experiment [2] (setting [4]) and in experiment [3] (setting [4]) were 500 to 5000 nM, less than 500 nM and less than 500 nM, respectively.
With `COc1ccc(-c2ccnc3[nH]ccc23)c(OC)c1` [compound 220], the Ki in experiment [1] (setting [4]), in experiment [2] (setting [4]) and in experiment [3] (setting [4]) was 500 to 5000 nM in each case.
Consider `O=C(NCC(F)(F)F)[C@H]1CCCCN1c1ccnc(-c2ccnc3[nH]ccc23)n1` [compound 215], for which the Ki was greater than 4000 nM in experiment [1] (setting [4]), 500 to 5000 nM in experiment [2] (setting [4]) and less than 500 nM in experiment [3] (setting [4]).
Consider `c1cc(-c2ccnc3[nH]ccc23)c2ccoc2c1` [compound 115, 4-Benzofuran-4-yl-1H-pyrrolo[2,3-b]pyridine], for which the Ki in experiment [1] (setting [5]) was less than 500 nM; in experiment [2] (enzyme inhibition, Table 5), less than 500 nM; in experiment [3] (enzyme inhibition, Table 5), less than 500 nM.
Regarding `N#CC1(c2cccc(-c3ccnc4[nH]ccc34)n2)CCCCC1` [compound 103, 1-(6-(1H-pyrrolo[2,3-b]pyridin-4-yl)pyridin-2-yl)cyclohexanecarbonitrile], the Ki in experiment [1] (setting [5]) was less than 500 nM; in experiment [2] (enzyme inhibition, Table 5), less than 500 nM; in experiment [3] (enzyme inhibition, Table 5), less than 500 nM.
For the compound `COc1ccc(F)cc1-c1ccnc2[nH]ccc12` [compound 205], the Ki in experiment [1] (setting [4]), in experiment [2] (setting [4]) and in experiment [3] (setting [4]) was 500 to 5000 nM in each case.
In the case of `Cc1ccc(-c2ccnc3[nH]ccc23)cc1C` [compound 110, 4-(3,4-Dimethyl-phenyl)-1H-pyrrolo[2,3-b]pyridine], the Ki was less than 500 nM in experiment [1] (setting [5]); less than 500 nM in experiment [2] (enzyme inhibition, Table 5); less than 500 nM in experiment [3] (enzyme inhibition, Table 5).
Turning to `N#CC1CCCN1C(=O)c1cc(-c2c(Cl)cnc3[nH]ccc23)c[nH]1` (stereo not drawn) [compound 357], the Ki in experiment [1] (setting [4]) is 500 to 5000 nM; in experiment [2] (setting [4]), less than 500 nM; in experiment [3] (setting [4]), less than 500 nM.
As for `Clc1cnc2[nH]ccc2c1-c1csc2ccccc12` [compound 142], the Ki in experiment [1] (setting [4]) is 500 to 5000 nM; in experiment [2] (setting [4]), less than 500 nM; in experiment [3] (setting [4]), less than 500 nM.
As for `CC(C)CN(C)C(=O)c1cc(-c2ccnc3[nH]ccc23)c[nH]1` [compound 310], the Ki was 500 to 5000 nM in experiment [1] (setting [4]), less than 500 nM in experiment [2] (setting [4]) and less than 500 nM in experiment [3] (setting [4]).
As to `CN(C)CCCN(C)C(=O)c1cc(-c2c(Cl)cnc3[nH]ccc23)c[nH]1` [compound 349], the Ki in experiment [1] (setting [4]) is greater than 4000 nM; in experiment [2] (setting [4]) it was 500 to 5000 nM; in experiment [3] (setting [4]), 500 to 5000 nM.
On to `O=C(O)c1cccc(-c2ccnc3[nH]ccc23)c1` [compound 47, 3-(1H-Pyrrolo[2,3-b]pyridin-4-yl)-benzoic acid], for which the Ki is 500 to 5000 nM in experiment [1] (setting [5]); 500 to 5000 nM in experiment [2] (enzyme inhibition, Table 5); 500 to 5000 nM in experiment [3] (enzyme inhibition, Table 5).
As for `CCCCN(CCC#N)C(=O)c1ccc(-c2ccnc3[nH]ccc23)s1` [compound 321], the Ki in experiment [1] (setting [4]), in experiment [2] (setting [4]) and in experiment [3] (setting [4]) was less than 500 nM each time.
For `Cn1cc(-c2ccnc3[nH]ccc23)cn1` [compound 111, 4-(1-Methyl-1H-pyrazol-4-yl)-1H-pyrrolo[2,3-b]pyridine], the Ki in experiment [1] (setting [5]) is less than 500 nM; in experiment [2] (enzyme inhibition, Table 5), less than 500 nM; in experiment [3] (enzyme inhibition, Table 5), less than 500 nM.
Turning to `COCCN(CCOC)C(=O)c1cc(-c2ccnc3[nH]ccc23)c[nH]1` [compound 308], the Ki in experiment [1] (setting [4]) was 500 to 5000 nM; in experiment [2] (setting [4]), less than 500 nM; in experiment [3] (setting [4]), less than 500 nM.
Take `O=S(=O)(C1CC1)N1CCCC(Nc2c(Cl)cnc3[nH]ccc23)C1` (stereo not drawn) [compound 181]: the Ki was 500 to 5000 nM in experiment [1] (setting [4]), less than 500 nM in experiment [2] (setting [4]) and less than 500 nM in experiment [3] (setting [4]).
In the case of `CC(=O)c1ccccc1-c1ccnc2[nH]ccc12` [compound 213], the Ki was greater than 4000 nM in experiment [1] (setting [4]), greater than 5000 nM in experiment [2] (setting [4]) and greater than 5000 nM in experiment [3] (setting [4]).
Regarding `CC(C)c1cccc(-c2ccnc3[nH]ccc23)c1` [compound 109, 4-(3-Isopropyl-phenyl)-1H-pyrrolo[2,3-b]pyridine], the Ki was less than 500 nM in experiment [1] (setting [5]); less than 500 nM in experiment [2] (enzyme inhibition, Table 5); less than 500 nM in experiment [3] (enzyme inhibition, Table 5).
